# Results published in patent publication US20150177228A1, “DEVICE AND METHOD FOR SCREENING FOR BIOACTIVE MATERIALS USING VISUAL RECOGNITION OF ANIMALS” (GENOMIC DESIGN BIOENGINEERING COMPANY, priority 2012, published 2015).
# Test system: zebrafish 4 days post fertilization
# Assay: Zebrafish colour preference (visual perception response) test in water tank with blue and yellow passage portions
# Conditions: as the alcohol concentration of the medium increased (0%, 0.5%, 1%, 2%); 10 zebrafish, 30-minute intervals, FIG. 5
# Description: 5) The image stored in each of the first to fifth image files was read at 2-minute intervals to count the number of zebrafish in the first passage portion 112 fitted with the first fitting body 120 (preferred color) or the second passage portion 113 fitted with the second fitting body 130 (dislike color).
smiles,measurement,value
CCO [alcohol],"visual perception response of the zebrafish (distribution between first passage portion, preferred color, and second passage portion, dislike color)",scattered in both the first passage portion 112 and the second passage portion 113
